Data as given in patent publication US20250282797A1, “CRYSTALLINE FORM OF FGFR4 INHIBITOR AND USE THEREOF” (CSPC ZHONGQI PHARMACEUTICAL TECHNOLOGY (SHIJIAZHUANG) CO., …, priority 2022, published 2025).

Key:
[1] = Pharmacokinetic study in rats; type: in vivo, SD rats; conditions: rat
Description: Test Example 6: Pharmacokinetic Study of Compound of Formula B in Rats
Assay drug: the compound of formula B obtained in Preparation Example 1.
Instrument: LC-MS/MS-13 (TQ5500, Triple quad), with the operation software of Xcalibur2.0.7 (Thermo Fisher Scientific, USA); LC-10ADvp liquid chromatography system (Shimadzu, Japan); Shimadzu LC-20AD liquid chromatography pump; Shimadzu CBM-20A system controller; Shimadzu CTO-20A column oven; and SIL-20AC autosampler (Shimadzu, Japan). Chromatographic column: Agilent Zorbax SB-CN 3.5 u 100×2.1 mm; column temperature: 40° C.; mobile phase A: 0.1% aqueous formic acid solution; mobile phase B: a 0.1% solution of formic acid in acetonitrile; flow rate: 0.60 mL/min. The gradient elution was performed as follows: from 0 to 0.5 min, the mobile phase B was increased from 1% to 90%; from 0.5 to 1.2 min, 90% of the mobile phase B was maintained; starting from 1.21 min, the mobile phase B was changed back to 1%; and elution was stopped at 1.60 min.
Animals: 6 male SD rats were supplied by Shanghai Sippe-Bk Lab Animal Co., Ltd. The body weight range was 180-220 g. After purchase, the rats were bred in the laboratory of the experimental animal center for 2 days for later use. The rats were fasted 10-14 h before administration and 4 h after administration, and given ad libitum access to water during the assay. The rats were randomly divided into two groups, with 3 rats in each group. One group was intravenously injected, and the other group was intragastrically administered.
Preparation of intragastric administration solution: the compound of formula B (4.85 mg) was precisely weighed out, and a mixed aqueous solution (9.70 mL) containing 0.5% methylcellulose and 0.4% Tween-80 was added, followed by sonication at room temperature to prepare a 0.5 mg/mL suspension. Preparation of intravenous injection solution: the compound of formula B (2.79 mg) was precisely weighed out, and DMSO (21 μL), PEG200 (2.79 mL), and normal saline (4.164 mL) were added to prepare a 0.4 mg/mL solution.
Blood was collected in the intragastric administration group about 0.25 h before administration and 0.25 h, 0.5 h, 1 h, 1.5 h, 2 h, 4 h, 6 h, 8 h, 12 h, and 24 h after administration. Blood was collected in the intravenous administration group about 0.25 h before administration and 0.083 h, 0.25 h, 0.5 h, 0.75 h, 1 h, 2 h, 4 h, 8 h, 12 h, and 24 h after administration. The blood was collected from the jugular vein or other venipuncture at 0.25 mL/time point and anticoagulated with EDTA-K2 or EDTA-K3. The collected blood was placed on the ice. After the blood samples were collected, plasma was separated by centrifugation (centrifugation conditions: 6800 g/min, 6 min, 2-8° C.). The collected plasma samples were stored in a refrigerator at −80° C. for testing prior to analysis.
The compound of the formula B was accurately weighed out and formulated into different concentrations, and quantitative analysis was performed on a mass spectrometer to establish a standard curve. The concentration of the compound of formula B in the plasma described above was then measured to obtain the concentrations of the compound of formula B at different time points. All the measured data were collected and processed by relevant software, and pharmacokinetic parameters (mainly including kinetic parameters Tmax, T1/2, Cmax, AUC0-t, etc.) were calculated by adopting a statistical moment method. […]

[2] = molecular target: FGFR4 (Homo sapiens, UniProt P22455); experiment: FGFR4 kinase activity inhibition assay (Caliper mobility shift); type: biochemical
Experimental: 1. FGFR4 Kinase Activity Inhibition Assay
The FGFR4 protein kinase activity was determined by using the Caliper mobility shift assay technology. The compound was dissolved in DMSO and then diluted with a kinase buffer, and 5 μL of the compound (10% DMSO) at a 5-fold final reaction concentration was added to a 384-well plate. 10 μL of a 2.5-fold enzyme (FGFR4) solution was added, and then the mixture was incubated at room temperature for 10 min. 10 μL of a 2.5-fold substrate (FAM-labeled peptide and ATP) solution was added. The mixture was incubated at 28° C. for 30-60 min, and then 25 μL of a terminating solution was added to terminate the reaction. Conversion rate data were read on Caliper EZ Reader II (Caliper Life Sciences). The conversion rate was converted into inhibition data date (% inhibition rate=(max−sample conversion rate)/(max−min)×100), wherein max referred to the conversion rate of the DMSO control, and min referred to the conversion rate of the enzyme-free control. The concentration and inhibition rate of the compound were used as the abscissa and ordinate to plot the curve, and the XLFit Excel Add-in version 4.3.1 software was used to fit the curve and calculate the IC50 value.

[3] = test system: Huh7 cell; experiment: Inhibition assay on Huh-7 tumor cell proliferation (CTG); type: cell-based; conditions: Homo sapiens, 72 h or 168 h drug treatment
Experimental: 2. Inhibition Assay of Compound on Huh-7 Tumor Cell Proliferation
An Huh7 cell suspension was adjusted to 5×10e4 cells/mL or 2×10e4 cells/mL with DMEM+2 mM Glutamine+10% FBS medium. The cell suspension (100 μL) was added to each well of a 96-well cell culture plate at a final cell concentration of 5000 cells/well (72 h) or 2000 cells/well (168 h). The test compound was dissolved in DMSO as a 10 mmol stock solution. Compounds at 200× final concentration were prepared using the stock solution and DMSO, and 3×serial dilutions were prepared and diluted 20-fold with the medium. Finally, 10 μL of the corresponding 10-fold solution was added to each well of each cell strain, a single well for each drug concentration. […] After 72 h or 168 h of drug treatment, 100 μL of a CTG solution which was pre-melted and equilibrated to room temperature was added to each well according to CTG operation instructions, and the solution was mixed well using a microplate shaker for 2 min, left to stand at room temperature for 10 min, and measured for chemiluminescence signal values using an EnSpire plate reader. The cell survival rate was calculated using the following formula: (Vsample−Vblank)/(Vvehicle control−Vblank)×100%, wherein Vsample was the reading of the drug treatment group, Vvehicle control was the average value of the solvent control group, and Vblank was the average value of the blank control well. […]

[4] = male, SD, plasma, iv, intravenously injected, 2.0 mg/kg
[5] = male, SD, plasma, po, intragastrically administered, 5 mg/kg

FGFR4, sequence (P22455 22-802): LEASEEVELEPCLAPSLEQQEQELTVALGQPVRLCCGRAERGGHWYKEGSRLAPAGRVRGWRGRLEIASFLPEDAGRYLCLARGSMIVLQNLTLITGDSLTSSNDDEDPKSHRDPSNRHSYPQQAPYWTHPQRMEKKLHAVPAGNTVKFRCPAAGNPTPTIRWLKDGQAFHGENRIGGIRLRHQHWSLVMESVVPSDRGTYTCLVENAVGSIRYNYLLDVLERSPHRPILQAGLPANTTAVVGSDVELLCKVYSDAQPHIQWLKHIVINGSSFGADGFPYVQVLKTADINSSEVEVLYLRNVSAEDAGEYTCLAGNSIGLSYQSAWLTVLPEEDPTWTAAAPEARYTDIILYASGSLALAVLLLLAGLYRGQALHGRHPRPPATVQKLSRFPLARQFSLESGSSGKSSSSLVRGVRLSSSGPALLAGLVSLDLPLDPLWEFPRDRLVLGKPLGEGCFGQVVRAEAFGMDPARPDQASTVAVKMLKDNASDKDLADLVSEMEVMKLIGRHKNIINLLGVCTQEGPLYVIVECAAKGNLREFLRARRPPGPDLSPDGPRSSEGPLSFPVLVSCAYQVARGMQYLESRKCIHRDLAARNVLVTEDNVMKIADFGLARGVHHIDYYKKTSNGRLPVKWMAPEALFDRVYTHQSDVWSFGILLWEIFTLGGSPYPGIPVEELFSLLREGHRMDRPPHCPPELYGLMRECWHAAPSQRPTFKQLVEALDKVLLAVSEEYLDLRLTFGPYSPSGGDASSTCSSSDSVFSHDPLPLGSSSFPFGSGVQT

N#Cc1cnc(NC(=O)N2CCCc3cc(CN4CCN5CCC[C@H]5C4=O)c(C=O)nc32)cc1NC1CC1 [compound of formula B]
AUC(0-t) [1, 4]: 3980 ng·h/mL | clearance [1, 4]: 8.63 mL/min/kg | half-life [1, 4]: 1.88 h | bioavailability ([1]; male, SD, plasma, oral, intragastric 5 mg/kg vs intravenous 2.0 mg/kg, read-out: absolute bioavailability): 48.6% | AUC(0-t) [1, 5]: 4840 ng·h/mL | Cmax [1, 5]: 1220 ng/mL | half-life [1, 5]: 1.95 h | Tmax ([1]; male, SD, plasma, po, intragastrically administered, 5 mg/kg, read-out: time at which the plasma concentration reached the peak value (Tmax)): 2.67 h | volume distribution ([1]; intravenously injected, 2.0 mg/kg): 0.883 L/kg | IC50 [2]: < 5 nM | IC50 [3]: < 10 nM
